According to PubChem BioAssay (NCI):
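Where inhibition never reached the appropriate level, the endpoint shown equals the highest concentration tested. Otherwise, values were interpolated linearly from a five-concentration, 48-hour dose response in 96-well plates. GI50 = concentration required for 50% inhibition of growth. TGI denotes the concentration required for complete inhibition of growth.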

Experiments:
Test in all cases: DTP human tumour cell line panel, 48 h
HT29 colon = tested on: HT29 colon
CAKI-1 renal = tested on: CAKI-1 renal
HCT-116 colon = tested on: HCT-116 colon
UO-31 renal = tested on: UO-31 renal
IGROV1 ovarian = tested on: IGROV1 ovarian
SK-MEL-28 melanoma = tested on: SK-MEL-28 melanoma
SN12C renal = tested on: SN12C renal
MDA-MB-435 = tested on: MDA-MB-435
COLO 205 colon = tested on: COLO 205 colon
RXF 393 renal = tested on: RXF 393 renal

Row | Compound | TGI (HT29 colon) [µM] | TGI (CAKI-1 renal) [µM] | TGI (HCT-116 colon) [µM] | TGI (UO-31 renal) [µM] | TGI (IGROV1 ovarian) [µM] | TGI (SK-MEL-28 melanoma) [µM] | TGI (SN12C renal) [µM] | TGI (MDA-MB-435) [µM] | TGI (COLO 205 colon) [µM] | TGI (RXF 393 renal) [µM] | GI50 (RXF 393 renal) [µM] | GI50 (HT29 colon) [µM] | GI50 (CAKI-1 renal) [µM] | GI50 (HCT-116 colon) [µM] | GI50 (UO-31 renal) [µM] | GI50 (IGROV1 ovarian) [µM] | GI50 (COLO 205 colon) [µM] | GI50 (SK-MEL-28 melanoma) [µM] | GI50 (SN12C renal) [µM] | GI50 (MDA-MB-435) [µM]
1 | Cc1cccc(NC(=O)CC#N)c1Cl | > 100 | > 100 | > 100 | > 100 | > 100 | > 100 | > 100 | – | – | – | – | – | – | – | – | – | – | – | – | –
2 | O=[N+]([O-])c1ccc(-c2cn(-c3ccc(Cl)cc3)cn2)cc1 | > 100 | > 100 | > 100 | > 100 | > 100 | > 100 | > 100 | > 100 | > 100 | – | – | – | – | – | – | – | – | – | – | –
3 | CC(Oc1ccc2cc(C(=O)c3ccccc3)c(=O)oc2c1)C(=O)O (configuration not stated) | > 100 | > 100 | > 100 | > 100 | > 100 | > 100 | > 100 | – | > 100 | > 100 | – | – | – | – | – | – | – | – | – | –
4 | Cc1ccc(C2=C(c3ccccc3)C(O)(c3ccc(C)cc3)C(c3ccccc3)=C2c2ccc(C)cc2)cc1 | – | > 100 | > 100 | – | > 100 | > 100 | > 100 | – | > 100 | – | – | – | – | – | – | – | – | – | – | –
5 | O=C([O-])c1ccccc1Nc1ccccc1[O-].[Ni+3].[OH3+].[OH3+].[OH3+] | > 100 | > 100 | > 100 | > 100 | > 100 | > 100 | > 100 | – | > 100 | > 100 | > 100 | > 100 | > 100 | > 100 | > 100 | > 100 | > 100 | > 100 | > 100 | –
6 | CCN(CC)CCOc1ccc(C(=C2CCCCC2)c2ccc(OCCN(CC)CC)cc2)cc1 | 2.32 | 3.7 | 2.54 | 2.96 | 3.58 | 2.64 | 3.09 | – | 2.7 | 3.14 | – | – | – | – | – | – | – | – | – | –
7 | CC(=O)OCC1OC(Sc2ccccn2)C=CC1OC(C)=O (configuration not stated) | > 100 | – | > 100 | > 100 | > 100 | > 100 | > 100 | – | > 100 | > 100 | – | – | – | – | – | – | – | – | – | –
8 | c1ccc(C2N3CCCCC3[C@@H]3c4[nH]c5ccccc5c4CCN23)cc1 (some centres not stated) | 33.5 | > 100 | > 100 | > 100 | > 100 | 70.2 | > 100 | – | 48.2 | > 100 | – | – | – | – | – | – | – | – | – | –
9 | O=c1[nH]c(/C=C(\O)c2ccncc2)nc2ccccc12 | > 100 | > 100 | > 100 | > 100 | > 100 | > 100 | > 100 | – | > 100 | – | – | – | – | – | – | – | – | – | – | –
10 | CCC(/C(=N\Nc1c(Cl)cc(Cl)cc1Cl)c1ccccc1)n1ccnc1C (configuration not stated) | 21.4 | 25.8 | 20.8 | 20.1 | 28.8 | 29.7 | 26.4 | – | 24.1 | – | – | – | – | – | – | – | – | – | – | –
11 | CN(C)CCC1(C2=CCCC2)CC/C(=C\c2ccccc2)C1=O (configuration not stated) | 34.4 | 26.3 | 35.4 | 30.7 | 29.8 | 38 | 31.1 | – | 28.3 | 26.6 | – | – | – | – | – | – | – | – | – | –
12 | Oc1cc2c(cc1O)-c1[nH]ncc1CC2 | > 100 | > 100 | > 100 | 79.1 | > 100 | > 100 | > 100 | – | 66.5 | – | – | – | – | – | – | – | – | – | – | –
13 | Cc1nc2cc(N)c(Cl)cc2[nH]1 | > 100 | > 100 | > 100 | > 100 | > 100 | > 100 | > 100 | > 100 | > 100 | – | – | – | – | – | – | – | – | – | – | –
14 | COC(=O)C(Cc1nc2ccccc2[nH]c1=O)C(=O)C(=O)Nc1ccc(OC)cc1[N+](=O)[O-] (configuration not stated) | > 100 | > 100 | > 100 | > 100 | > 100 | > 100 | > 100 | – | > 100 | – | – | – | – | – | – | – | – | – | – | –
15 | O=C(c1ccc2c3c(ccc(C(=O)C(F)(F)F)c13)CC2)C(F)(F)F | > 100 | > 100 | > 100 | > 100 | > 100 | > 100 | > 100 | – | 44.1 | > 100 | – | – | – | – | – | – | – | – | – | –
16 | CC([O-])C(=O)[O-].NCC1CCC1CN.[Pt+4] (configuration not stated) | > 10 | > 10 | > 10 | – | > 10 | > 10 | > 10 | > 10 | > 10 | – | – | > 10 | > 10 | > 10 | – | > 10 | > 10 | > 10 | > 10 | > 10
17 | O=C1C(N2C(=O)c3ccccc3C2=O)CN1C(COCc1ccccc1)c1ccc(OCc2ccccc2)cc1 (configuration not stated) | > 100 | > 100 | > 100 | > 100 | > 100 | > 100 | > 100 | – | > 100 | > 100 | – | – | – | – | – | – | – | – | – | –
18 | COc1ccc(C(=O)O)c(Cc2ccc3ccccc3c2)c1 | > 100 | > 100 | > 100 | > 100 | > 100 | > 100 | > 100 | – | > 100 | > 100 | – | – | – | – | – | – | – | – | – | –
19 | CSc1ccc2c(cc1=O)[C@@H](NC(=O)c1ccc(F)cc1)CCc1cc(O)c(O)c(O)c1-2 | > 100 | > 100 | > 100 | > 100 | > 100 | > 100 | > 100 | – | > 100 | > 100 | – | – | – | – | – | – | – | – | – | –
20 | CN1CCCCC1CCN1c2ccccc2Sc2ccc(S(C)=O)cc21 (configuration not stated) | > 100 | > 100 | > 100 | – | > 100 | > 100 | > 100 | > 100 | > 100 | > 100 | – | – | – | – | – | – | – | – | – | –
21 | CC(O[Si](C)(C)C)C1C=CC(C)n2c(=O)n(-c3ccccc3)c(=O)n21 (configuration not stated) | > 100 | > 100 | > 100 | > 100 | > 100 | > 100 | – | – | > 100 | > 100 | – | – | – | – | – | – | – | – | – | –
22 | CCN(CC(COc1ccc2c(c1)[n+]([O-])nc(N)[n+]2[O-])OC(C)=O)C(C)=O (configuration not stated) | > 100 | > 100 | > 100 | > 100 | > 100 | > 100 | > 100 | > 100 | > 100 | – | – | – | – | – | – | – | – | – | – | –
23 | CCC/C(=N\NC(=O)c1cc2ccccc2cc1O)C(CC)C(=O)CCC(=O)N(Cc1ccccc1)Cc1ccccc1 (configuration not stated) | > 100 | > 100 | > 100 | > 100 | > 100 | > 100 | > 100 | – | 69.5 | > 100 | – | – | – | – | – | – | – | – | – | –
